Reference: ChEMBL document CHEMBL1127144, “Cyclopentenones as potential inhibitors of penicillin sensitive enzymes” (Bioorg Med Chem Lett, 1993)
Calls of active or inactive are those of the source.

How the values were obtained:
[1] = system: Haemophilus influenzae; test: Compound was evaluated for antibacterial activity against Haemophilus influenzae Q1; Inactive; format: functional, organism-based
[2] = system: Staphylococcus aureus; test: Compound was evaluated for antibacterial activity against Staphylococcus aureus Oxford; Inactive; format: functional, organism-based
[3] = target: T1, Beta-lactamase 1 (Bacillus cereus) (UniProt P00809); test: Compound was evaluated for the inhibitory activity against beta-lactamase of Bacillus cereus; Inactive
T1 sequence (whole entry): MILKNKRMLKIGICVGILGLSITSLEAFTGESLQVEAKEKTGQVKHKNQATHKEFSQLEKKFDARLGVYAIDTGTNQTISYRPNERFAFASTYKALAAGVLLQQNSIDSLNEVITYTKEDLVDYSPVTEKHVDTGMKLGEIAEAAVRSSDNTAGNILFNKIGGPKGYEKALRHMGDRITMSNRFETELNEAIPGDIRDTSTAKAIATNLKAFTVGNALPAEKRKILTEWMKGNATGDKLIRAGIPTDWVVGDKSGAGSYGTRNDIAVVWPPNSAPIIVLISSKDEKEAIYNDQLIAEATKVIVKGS

[4] = target: Beta-lactamase (Enterobacter cloacae) (UniProt P05364); test: Compound was evaluated for the inhibitory activity against beta-lactamase of Enterobacter cloacae P99; Inactive
[5] = target: Beta-lactamase (Streptomyces albus G) (UniProt P14559); test: Compound was evaluated for the inhibitory activity against beta-lactamase of Streptomyces albus G; Inactive
[6] = system: Streptococcus pneumoniae; test: Compound was evaluated for antibacterial activity against Streptococcus pneumoniae 1761; Inactive; format: functional, organism-based
[7] = target: Beta-lactamase TEM (Escherichia coli) (UniProt P62593); test: Compound was evaluated for the inhibitory activity against beta-lactamase of Escherichia coli (TEM-1); Inactive
[8] = system: Streptococcus pyogenes; test: Compound was evaluated for antibacterial activity against Streptococcus pyogenes CN10; Inactive; format: functional, organism-based
[9] = system: Streptomyces; test: Compound was evaluated for the inhibitory activity against D, D-carboxypeptidase of Streptomyces R39; Inactive
[10] = system: Enterococcus faecalis; test: Compound was evaluated for antibacterial activity against […] I; Inactive; format: functional, organism-based
[11] = system: Pseudomonas aeruginosa; test: Compound was evaluated for antibacterial activity against Pseudomonas aeruginosa 447B-ES48; Inactive; format: functional, organism-based
[12] = system: mycobacterium catarrhalis; test: Compound was evaluated for antibacterial activity against Mycobacterium catarrhalis 1502; Inactive; format: functional
[13] = system: Escherichia coli; test: Compound was evaluated for antibacterial activity against Escherichia coli ESS; Inactive; format: functional, organism-based
[14] = system: Bacillus subtilis; test: Compound was evaluated for antibacterial activity against Bacillus subtilis ATCC 6633; Inactive; format: functional, organism-based
[15] = system: Streptococcus agalactiae; test: Compound was evaluated for antibacterial activity against Streptococcus agalactiae Hester; Inactive; format: functional, organism-based

Measured: Activity

Chain of Beta-lactamase (Streptomyces albus G) (P14559 whole entry, looked up): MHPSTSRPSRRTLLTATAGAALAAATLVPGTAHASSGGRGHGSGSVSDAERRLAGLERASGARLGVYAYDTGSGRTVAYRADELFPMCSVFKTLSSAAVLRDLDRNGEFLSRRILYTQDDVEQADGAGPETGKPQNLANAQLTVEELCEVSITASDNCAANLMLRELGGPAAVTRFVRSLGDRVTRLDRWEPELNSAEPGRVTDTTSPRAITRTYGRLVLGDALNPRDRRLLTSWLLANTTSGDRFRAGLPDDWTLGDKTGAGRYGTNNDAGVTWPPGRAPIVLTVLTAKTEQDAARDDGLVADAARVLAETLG
Chain of Beta-lactamase (Enterobacter cloacae) (P05364 21-381 limits assumed): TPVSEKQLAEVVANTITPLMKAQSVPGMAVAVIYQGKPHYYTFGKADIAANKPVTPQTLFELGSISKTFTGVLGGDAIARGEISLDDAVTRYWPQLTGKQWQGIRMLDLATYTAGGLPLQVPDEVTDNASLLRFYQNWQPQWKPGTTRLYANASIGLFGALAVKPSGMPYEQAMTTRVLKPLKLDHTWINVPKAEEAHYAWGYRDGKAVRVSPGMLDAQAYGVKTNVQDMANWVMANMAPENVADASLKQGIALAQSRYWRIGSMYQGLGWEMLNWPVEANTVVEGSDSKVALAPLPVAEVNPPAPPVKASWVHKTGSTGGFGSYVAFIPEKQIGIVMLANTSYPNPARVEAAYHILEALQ
Chain of Beta-lactamase TEM (Escherichia coli) (P62593 whole entry): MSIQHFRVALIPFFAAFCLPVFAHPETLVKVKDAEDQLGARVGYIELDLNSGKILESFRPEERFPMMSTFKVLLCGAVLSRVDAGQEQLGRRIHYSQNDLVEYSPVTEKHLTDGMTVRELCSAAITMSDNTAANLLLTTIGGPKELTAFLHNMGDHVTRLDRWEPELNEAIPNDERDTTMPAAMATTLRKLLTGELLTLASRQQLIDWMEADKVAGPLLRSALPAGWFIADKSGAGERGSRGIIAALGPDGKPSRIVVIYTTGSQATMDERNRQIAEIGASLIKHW

NC1C=C(CC(=O)O)C(=O)C1 (stereo not given)
inactive: all assays above

O=C(O)CC1=CC(NC(=O)Cc2ccccc2)CC1=O (stereo not given)
inactive: all assays above

CO/N=C(/C(=O)NC1C=C(CC(=O)O)C(=O)C1)c1csc(N)n1 (stereo not given)
inactive: all assays above
